Test results taken from ChEMBL document CHEMBL1148627, “Design and synthesis of heterocyclic malonyl-CoA decarboxylase inhibitors” (Bioorg Med Chem Lett, 2006).

Biological target: T1, Malonyl-CoA decarboxylase, mitochondrial (Homo sapiens, UniProt O95822)
T1 sequence (O95822 whole entry): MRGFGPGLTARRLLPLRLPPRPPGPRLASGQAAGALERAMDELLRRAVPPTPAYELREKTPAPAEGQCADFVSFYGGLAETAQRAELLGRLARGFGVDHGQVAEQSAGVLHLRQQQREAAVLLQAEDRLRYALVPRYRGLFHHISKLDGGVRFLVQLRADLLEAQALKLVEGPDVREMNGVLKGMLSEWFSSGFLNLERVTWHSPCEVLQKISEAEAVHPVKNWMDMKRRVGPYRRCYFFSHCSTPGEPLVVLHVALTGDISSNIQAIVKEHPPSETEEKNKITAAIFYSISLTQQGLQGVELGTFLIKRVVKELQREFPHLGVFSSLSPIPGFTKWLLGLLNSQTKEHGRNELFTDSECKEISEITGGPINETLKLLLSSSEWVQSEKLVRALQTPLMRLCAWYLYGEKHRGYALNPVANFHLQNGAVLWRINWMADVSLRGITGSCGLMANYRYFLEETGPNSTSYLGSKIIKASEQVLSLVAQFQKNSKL
Assay: Inhibitory activity against recombinant human MCD MBP fusion protein

| SMILES | IC50 [nM] |
| --- | --- |
| CC(C)NC(=O)CCC1CN(Cc2cnc(C(C)C)n2-c2ccc(C(O)(C(F)(F)F)C(F)(F)F)cc2)CCO1 (stereo not drawn) | 1080 |
| CCC(C)c1ncc(CNC(C)C)n1-c1ccc(C(O)(C(F)(F)F)C(F)(F)F)cc1 (stereo not drawn) | 341 |
| CCC(C)c1ncc(/C=C/C(=O)O)n1-c1ccc(C(O)(C(F)(F)F)C(F)(F)F)cc1 (stereo not drawn) | 523 |
| CCCCNCc1cnc(C(C)C)n1-c1ccc(C(O)(C(F)(F)F)C(F)(F)F)cc1 | 482 |
| OCc1cnc(-c2ccccn2)n1-c1ccc(C(O)(C(F)(F)F)C(F)(F)F)cc1 | 791 |

Now from value to molecule:

| IC50 [nM] | SMILES |
| --- | --- |
| 567 | CC(C)c1nc(C(F)(F)F)cn1-c1ccc(C(O)(C(F)(F)F)C(F)(F)F)cc1 |
| 243 | CC(C)c1nc(CO)cn1-c1ccc(C(O)(C(F)(F)F)C(F)(F)F)cc1 |
| 321 | CCC(C)c1ncc(CO)n1-c1ccc(C(O)(C(F)(F)F)C(F)(F)F)cc1 (stereo not drawn) |
